Laboratory results published in patent US7649002B2, “(3,5-dimethylpiperidin-1yl)(4-phenylpyrrolidin-3-yl)methanone derivatives as MCR4 agonists” (Pfizer Inc, priority 2004, dated 2010).
Like-named read-outs stand apart in the source and are kept apart here.

Target: T1, human MCR4 receptor (Homo sapiens, UniProt P32245)
T1 construct: expressed in transfected cells
Assay: MCR4 improved functional assay (Protocol E): CHO-K1-MC4R-CRE-β-lactamase reporter
Format: cell-based
Source text: (ii) MCR5 Standard Functional Assay Methodology and MCR4 Improved Functional Assay Methodology [Assay Protocol D and E Respectively] […] These cell lines were engineered using protocols akin to those outlined by Zaccolo et al (Zaccolo, M., (2000) Nature, 2(1); 25-29). Compound-induced activation of the MCR5 or MCR4 receptors in these two cell lines stimulated the production, and intracellular accumulation, of the enzyme β-lactamase. The quantity of β-lactamase enzyme produced was directly proportional to the degree to which the test compound activated the MCR5 or MCR4 receptors present on these cells and was quantified using the P-lactamase gene reporter analysis kit that is commercially available from Invitrogen Life Technologies. An in-depth description of this technology and assay protocols are available from the Invitrogen web site (www.invitrogen.com). The protocol listed below provides a summary of that assay methodology. The quantity of β-lactamase enzyme produced by compound-induced activation of the MCR5 or MCR4 receptors expressed in these cell lines was quantified using a LjI Biosystems Analyst™ HT 96.384 plate reader set to excite at a wave length of 405 nm, and measure the energy emitted at wave lengths of 450 nm and 530 nm. Cellular responses were quantified by dividing the measured energy emitted at a wavelength of 450 nm by the measured energy emitted at a wavelength of 530 nm. […] CCF4-AM was dissolved in 100% DMSO to give a final solution concentration of 1 mM. This solution was termed Solution A. Probenecid was dissolved in 200 mM NaOH to give a final solution concentration of 200 mM. This solution was termed Solution D. Composition of the β-lactamase assay dye solution: for 1072 μL of assay dye solution combine: 12 μL of Solution A, 60 μL of Solution B, 925 μL of Solution C and 75 μL of Solution D. […] Cells were grown in T225 vent cap flasks containing 50 ml of growth medium and maintained in a cell incubator at a temperature of 37° C. and in an environment containing 5% CO2. The composition of the growth medium for the CHO-K1-MC5R-CRE-β-lactamase was 90% v/v DMEM supplemented with; Glutamax-1, 25 mM HEPES, 10% v/v foetal calf serum (FCS), 1 mM sodium pyruvate, 0.1 mM non essential amino acids and 800 μg/ml genetic in. For the CHO-K1-MC4R-CRE-β-lactamase this growth media was further supplemented with […] Zeocin. Cells were harvested when they reached 80-90% confluency by first removing the existing growth medium and then washing with PBS that had been pre-warmed to a temperature of 37° C. This PBS was then removed and 5 ml of cell dissociation fluid added to the flask. These cells were incubated for 5 minutes in a cell incubator set at a temperature of 37° C. and in an environment containing 5% CO2 to detach the cells. When cells were detached, pre-warmed growth media was added, the cells re-suspended and mixed gently to achieve a single cell suspension by pipetting. This cell suspension was then used for experimentation, or transferred into a new T225 flask to perpetuate the cell culture. […] For each assay the cell plates were then retuned to a cell incubator maintained at a temperature of 37° C. and in an environment containing 5% CO2 overnight before performing the assay on the second assay day. […] For the MCR4 improved functional assay methodology the solution of cyclohexamide was not added. Subsequently, 10 μL of the test compound solution was transferred to the assay plate. The assay plate was then transferred to a cell incubator, set at 37° C. and in an environment containing 5% CO2, and left for 4 hours for the MCR4 improved assay methodology, or 5 hours for the MCR5 standard assay methodology. After this incubation period the plate was removed from the incubator, 10 μL of the […] assay dye solution was added to each well and then the plate returned to the cell incubator.

[1] = Protocols C or E, read-out: functional potency at the MC4 receptor (EC50)

T1 sequence (P32245 whole entry): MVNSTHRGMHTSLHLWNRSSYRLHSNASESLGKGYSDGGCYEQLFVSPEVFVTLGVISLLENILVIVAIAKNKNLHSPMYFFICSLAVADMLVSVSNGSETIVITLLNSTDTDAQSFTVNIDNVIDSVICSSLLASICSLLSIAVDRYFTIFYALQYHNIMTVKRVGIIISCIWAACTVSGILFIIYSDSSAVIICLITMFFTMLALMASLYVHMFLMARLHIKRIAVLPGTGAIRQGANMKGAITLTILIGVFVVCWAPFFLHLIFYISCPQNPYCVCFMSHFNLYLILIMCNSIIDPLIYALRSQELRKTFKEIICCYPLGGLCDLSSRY

EC50 [1]	EC50 (Table 6, read-out: MCR4 EC50)	Compound	EC50 (MCR4 EC50 (nM), Table 6)	EC50 (functional potency at the MC4 receptor (EC50), Protocols C or E)
< 10 nM	3.6 nM	C[C@@H]1CN(C(=O)[C@@H]2CN(c3ccccn3)C[C@H]2c2ccc(F)cc2F)C[C@H](C)[C@@]1(O)c1ccccc1.Cl [Example 31, (3R,4R,5S)-1-{[(3S,4R)-4-(2,4-difluorophenyl)-1-pyridin-2-ylpyrrolidin-3-yl]carbonyl}-3,5-dimethyl-4-phenylpiperidin-4-ol hydrochloride]	–	–
< 10 nM	–	C[C@@H]1CN(C(=O)[C@@H]2CN(C(C)(C)C)C[C@H]2c2ccc(F)cc2F)C[C@H](C)[C@@]1(O)c1ccccc1 [Example 1, (3R,4R,5S)-1-{[(3S,4R)-1-tert-Butyl-4-(24-difluorophenyl)pyrrolidin-3-yl]carbonyl}-3,5-dimethyl-4-phenylpiperidin-4-ol]	–	–
< 10 nM	9.6 nM	C[C@@H]1CN(C(=O)[C@@H]2CN(C(C)(C)C)C[C@H]2c2ccc(F)cc2F)C[C@H](C)[C@@]1(O)c1ccccc1.Cl [Example 5, (3R,4R,5S)-1-{[(3S,4R)-1-tert-Butyl-4-(2,4-difluorophenyl)pyrrolidin-3-yl]carbonyl}-3,5-dimethyl-4-phenylpiperidin-4-ol hydrochloride]	–	–
< 10 nM	1.5 nM	C[C@@H]1CN(C(=O)[C@@H]2CN(c3cccnn3)C[C@H]2c2ccc(F)cc2F)C[C@H](C)[C@@]1(O)c1ccccc1.Cl [Example 35, (3R,4R,5S)-1-{[(3S,4R)-4-(2,4-difluorophenyl)-1-pyridazin-3-ylpyrrolidin-3-yl]carbonyl}-3,5-dimethyl-4-phenylpiperidin-4-ol hydrochloride]	–	–
< 50 nM	27 nM	C[C@@H]1CN(C(=O)[C@@H]2CN(C(C)(C)C)C[C@H]2c2ccc(F)cc2F)C[C@H](C)[C@@]1(O)c1ccc(Cl)cc1.Cl [Example 13, (3R,4R,5S)-1-{[(3S,4R)-1-tert-butyl-4-(2,4-difluorophenyl)pyrrolidin-3-yl]carbonyl}-4-(4-chlorophenyl)-3,5-dimethylpiperidin-4-ol hydrochloride]	–	–
< 150 nM	75 nM	C[C@@H]1CN(C(=O)[C@@H]2CNC[C@H]2c2ccc(F)cc2F)C[C@H](C)[C@@]1(O)c1ccc(F)cc1.Cl [Example 12, (3R,4R,5S)-1-{[(3S,4R)-4-(2,4-difluorophenyl)pyrrolidin-3-yl]carbonyl}-4-(4-fluorophenyl)-3,5-dimethylpiperidin-4-ol hydrochloride]	–	–
–	–	CC(C)N1C[C@@H](C(=O)N2C[C@@H](C)[C@](O)(c3ccccc3)[C@@H](C)C2)[C@H](c2ccc(F)cc2F)C1.Cl [Example 6, (3R,4R,5S)-1-{[(3S,4R)-4-(2,4-Difluorophenyl)-1-isopropylpyrrolidin-3-yl]carbonyl}-3,5-dimethyl-4-phenylpiperidin-4-ol hydrochloride]	19 nM	< 50 nM
